Two substances from patent US9089509B2, “Method of treatment of age-related macular degeneration” (YEDA RESEARCH AND DEVELOPMENT CO., LTD., priority 2006, dated 2015) can be followed below.

The test system of assay [1] is neural stem/progenitor cells (NPCs) co-cultured with microglia. Kind of assay: Co-culture of GFP-expressing neural progenitor cells with treated microglia, neurogenesis (GFP+/βIII-T+ cells). Format: cell-based, mouse. The procedure:
Coronal sections (2 mm thick) of tissue containing the subventricular zone of the lateral ventricle were obtained from the brains of adult C57Bl/6J mice. The tissue was minced and then incubated for digestion at 37° C., 5% CO2 for 45 min in Earle's balanced salt solution containing 0.94 mg/ml papain (Worthington, Lakewood, N.J.) and 0.18 mg/ml of L-cysteine and EDTA. After centrifugation at 110×g for 15 min at room temperature, the tissue was mechanically dissociated by pipette trituration. Cells obtained from single-cell suspensions were plated (3500 cells/cm^2) in 75-cm^2 Falcon tissue-culture flasks (BD Biosciences, San Diego, Calif.), in neural stem/progenitor cell (NPC)-culturing medium [Dulbecco's modified Eagles's medium (DMEM)/F12 medium (Gibco/Invitrogen, Carlsbad, Calif.) containing 2 mM L-glutamine, 0.6% glucose, 9.6 μg/ml putrescine, 6.3 ng/ml progesterone, 5.2 ng/ml sodium selenite, 0.02 mg/ml insulin, 0.1 mg/ml transferrin, 2 μg/ml heparin (all from Sigma-Aldrich, Rehovot, Israel), fibroblast growth factor-2 (human recombinant, 20 ng/ml), and epidermal growth factor (human recombinant, 20 ng/ml; both from Peprotech, Rocky Hill, N.J.)]. Spheres were passaged every 4-6 days and replated as single cells. Green fluorescent protein (GFP)-expressing NPCs were obtained as previously described (Pluchino et al., 2003).
Brains from neonatal (P0-P1) C57Bl/6J mice were stripped of their meninges and minced with scissors under a dissecting microscope (Zeiss, Stemi DV4, Germany) in Leibovitz-15 medium (Biological Industries, Kibbutz Beit Ha-Emek, Israel). After trypsinization (0.5% trypsin, 10 min, 37° C./5% CO2), the tissue was triturated. The cell suspension was washed in culture medium for glial cells [DMEM supplemented with 10% fetal calf serum (FCS; Sigma-Aldrich, Rehovot), L-glutamine (1 mM), sodium pyruvate (1 mM), penicillin (100 U/ml), and streptomycin ([…])] and cultured at 37° C./5% CO2 in 75-cm^2 Falcon tissue-culture flasks (BD Biosciences) coated with poly-D-lysine (PDL) (10 mg/ml; Sigma-Aldrich, Rehovot) in borate buffer (2.37 g borax and 1.55 g boric acid dissolved in 500 ml sterile water, pH 8.4) for 1 h, then rinsed thoroughly with sterile, glass-distilled water. Half of the medium was changed after 6 h in culture and every 2nd day thereafter, starting on day 2, for a total culture time of 10-14 days. […]

The subject of the next assay is microglia. As to the kind of experiment: CD11c expression and morphology in primary culture of mouse microglia. The settings on record: microglia, 10 ng/ml (FIGS. 8A-8D). Format: cell-based. As to the method: Brains from neonatal (P0-P1) C57Bl/6J mice were stripped of their meninges and minced with scissors under a dissecting microscope (Zeiss, Stemi DV4, Germany) in Leibovitz-15 medium (Biological Industries, Kibbutz Beit Ha-Emek, Israel). After trypsinization (0.5% trypsin, 10 min, 37° C./5% CO2), the tissue was triturated. The cell suspension was washed in culture medium for glial cells [DMEM supplemented with 10% fetal calf serum (FCS; Sigma-Aldrich, Rehovot), L-glutamine (1 mM), sodium pyruvate (1 mM), penicillin (100 U/ml), and streptomycin ([…])] and cultured at 37° C./5% CO2 in 75-cm^2 Falcon tissue-culture flasks (BD Biosciences) coated with poly-D-lysine (PDL) (10 mg/ml; Sigma-Aldrich, Rehovot) in borate buffer (2.37 g borax and 1.55 g boric acid dissolved in 500 ml sterile water, pH 8.4) for 1 h, then rinsed thoroughly with sterile, glass-distilled water. Half of the medium was changed after 6 h in culture and every 2nd day thereafter, starting on day 2, for a total culture time of 10-14 days. Microglia were shaken off the primary mixed brain glial cell cultures (150 rpm, 37° C., 6 h) with maximum yields between days 10 and 14, seeded (10^5 cells/ml) onto PDL-pretreated 24-well plates (1 ml/well; Corning, N.Y., N.Y.), and grown in culture medium for microglia [RPMI-1640 medium (Sigma-Aldrich, Rehovot) supplemented with 10% FCS, L-glutamine (1 mM), sodium pyruvate (1 mM), β-mercaptoethanol ([…]), penicillin (100 U/ml), and streptomycin ([…])]. The cells were allowed to adhere to the surface of a PDL-coated culture flask (30 min, 37° C./5% CO2), and non-adherent cells were rinsed off.
Cover slips from co-cultures of NPCs and mouse microglia were washed with PBS, fixed as described above, treated with a permeabilization/blocking solution containing 10% FCS, 2% bovine serum albumin, 1% glycine, and 0.1% Triton X-100 (Sigma-Aldrich, Rehovot), and stained with a combination of mouse anti-[…] (anti-βIII-T) isoform C-terminus antibodies (1:500; Chemicon, Temecula, Calif.), rat anti-CD11b (MAC1; 1:50; BD—Pharmingen, Franklin Lakes, N.J.) and hamster anti-CD11c (1:100; eBioscience, San Diego, Calif.). To capture the microglia FITC- or Cy3-conjugated Bandeiraea simplicifolia isolectin B4 (IB-4; 1:50; Sigma-Aldrich, Rehovot) was used. To detect expression of human Aβ anti-Aβ (human amino-acid residues 1-17) (mouse, clone 6E10; Chemicon) was used.
On the basis of our previous findings, we suspected that the switch from a CD11b^+/CD11c^−/IGF-1^− to a CD11b^+/CD11c^+/IGF-I^+ microglial phenotype in the Cop-1 vaccinated Tg-AD mice might be attributable to IL-4. We examined this possibility in vitro. […] In contrast, the expression of CD11c induced by IL-4 was not transient. Quantification of the ability of IL-4 to induce CD11c expression even after the microglia were pretreated with Aβ is shown in FIG. 4D.
Thus, upregulation of CD11c on bone marrow derived myeloid cells by […] will allow the cells to reach injured sites and induce beneficial effect.

As to IFN-γ: recombinant mouse IFN-γ, the “counteracting the negative effect of Aβ-activated microglia on NPC survival and differentiation” value in assay [1] (cytokine 10 ng/ml added for 48 h after 48 h aggregated Aβ(1-40) 5 μM) is “failed to reverse their negative effect on neurogenesis”. Further, the “numbers of GFP+/βIII-T+ cells in co-cultures of NPCs with activated microglia” value in assay [1] (microglia activated with 10 ng/ml, co-culture 10 days, vs microglia-free control) is “dramatic increase”. Further, the “time to peak of CD11c upregulation after activation” value with microglia was in the range of 2 to 3 days.
As for “Aβ(1-40): β-amyloid peptide fragment 1-40, aggregated”, the “effect of microglia activated by aggregated Aβ(1-40) on neurogenesis and NPC number” value in assay [1] (aggregated Aβ(1-40) 5 μM, 48 h pre-incubation, co-culture 10 days) is “blocked neurogenesis and decreased the number of NPCs”.
